Earlier results in patent US6451357B1, “Method for purification of aloesin” (Unigen Pharmaceuticals, Inc., priority 2001, dated 2002).

What was measured:
[1] = tested on: tyrosinase; conditions: Lineweaver Burk diagram
[2] = tested on: tyrosinase; conditions: in vitro
[3] = tested on: de-pigmentation of the skin; conditions: relative to hydroquinone

SMILES	type of tyrosinase inhibition [1]	tyrosinase inhibition in words [2]	IC50 ([2]; substrate L-DOPA, read-out: concentration capable of 50% inhibition of tyrosinase activity) [µM]	quantity required to achieve a similar effect compared to the quantity of hydroquinone used [3]
CC(=O)Cc1cc(=O)c2c(C)cc(O)c([C@@H]3O[C@H](CO)[C@@H](O)[C@H](O)[C@H]3O)c2o1 [aloesin]	competitive inhibitor	strong inhibitor	200	–
O=C1O[C@H]([C@@H](O)CO)C(O)=C1O [ascorbic acid]	–	–	–	17 times
COc1cc(/C=C/C(=O)O[C@@H]2[C@@H](O)[C@H](O)[C@@H](CO)O[C@H]2c2c(O)cc(C)c3c(=O)cc(CC(C)=O)oc23)ccc1O [2″-feruloylaloesin, 2″-O-feruloylaloesin]	non-competitive inhibitor	–	–	–
OC[C@H]1O[C@@H](Oc2ccc(O)cc2)[C@H](O)[C@@H](O)[C@@H]1O [arbutin]	–	–	–	over 100 times
